Results on 16 molecules are retold here after PubChem BioAssay (NCI).

Structures are written as SMILES.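 48-hour exposure; five concentrations; linearly interpolated endpoints. TGI marks complete inhibition of growth.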 A value given as a limit tells only on which side of the number the result lay.

Experiment in all cases: NCI tumour cell line growth inhibition, 48 h
The subject of test [1] is CAKI-1 renal.
Test [2] deals with SF-539 CNS.
Test [3] has as its system CCRF-CEM leukemia.
In test [4] the test system is OVCAR-4 ovarian.
The subject of test [5] is HT29 colon.
The test system of test [6] is MCF7 breast.
Test [7] has as its system M14 melanoma.
Test [8] concerns COLO 205 colon.
For test [9], the system named is OVCAR-8 ovarian.
Test [10] concerns HOP-92 NSCLC.
Test [11] concerns BT-549 breast.
The subject of test [12] is K-562 leukemia.
Test [13] has as its system MDA-N.
The subject of test [14] is DU-145 prostate.
Test [15] relates to LOX IMVI melanoma.
For test [16], the system named is SF-295 CNS.
In test [17] the test system is UACC-257 melanoma.
The subject of test [18] is SK-MEL-28 melanoma.
Test [19] relates to IGROV1 ovarian.
The test system of test [20] is MDA-MB-231 breast.

Regarding `O=c1[nH]ncc2[nH]c3c4ccccc4ccc3c12`, the TGI is > 100 µM in [1]; > 100 µM in test [2]; > 100 µM in test [3]; > 100 µM in [4]; > 100 µM in [5]; 54.9 µM in [6]. Further, the TGI was > 100 µM in test [7]; 96.1 µM in test [8]; > 100 µM in test [9]; 87.1 µM in test [10]; > 100 µM in test [11]; > 100 µM in test [12]. Also, the TGI in [13] was > 100 µM; in [14], > 100 µM; in [15], > 100 µM; in [16], 84.1 µM.

For `O=C(Nc1cccc(F)c1)c1cc2ccc(O)cc2oc1=Nc1cccc(F)c1`, the TGI was > 100 µM in test [1]; > 100 µM in test [2]; > 100 µM in test [17]; 6.72 µM in test [3]; > 100 µM in [4]; > 100 µM in test [18]. Besides, the TGI in [5] is > 100 µM; in test [6], > 100 µM; in test [19] it was 5.73 µM; in [7], > 100 µM; in [8] it was > 100 µM; in test [9] it was 6.32 µM. The TGI in test [11] is 34.3 µM; in test [12], > 100 µM; in [13], > 100 µM; in test [14], > 100 µM; in test [15], 9.35 µM; in test [16], > 100 µM.

As for `CC12CC(=O)Nc3ccccc3N1C(c1ccccc1)=NO2` (centres undefined), the TGI in [1], in [2], in [17], in [3], in [4] and in test [20] was > 100 µM in each case. Moreover, the TGI in test [5], in test [6], in test [19], in test [7], in test [8] and in [9] was > 100 µM throughout. Further, the TGI in test [10], in test [11], in test [12], in test [13], in test [14] and in test [16] was > 100 µM in each case.

Turning to `CCCCc1ccc(-n2sc3ncc(-c4ccccc4)cc3c2=O)cc1`, the TGI in [1], in test [3], in [4], in [18], in test [6] and in test [19] was > 100 µM each time. Further, the TGI in [7], in test [8], in test [9], in test [10], in test [11] and in test [12] was > 100 µM in each case. The TGI in [13], in test [14], in [15] and in [16] was > 100 µM throughout.

With `Clc1ccc(-c2cc(-c3cc4cc(Br)ccc4nc3Cl)on2)cc1`, the TGI in [1] was > 50 µM; in test [2], 17.5 µM; in [17], 46 µM; in test [3], 36.2 µM; in test [4], > 50 µM; in [18], 29.3 µM. Also, the TGI in test [5] was > 50 µM; in test [6], 43.8 µM; in test [19], > 50 µM; in test [7], 37.9 µM; in [8], 15.4 µM; in [9], > 50 µM. Also, the TGI in test [10] was > 50 µM; in test [11], > 50 µM; in test [12] it was > 50 µM; in test [13], 30.6 µM; in test [14], > 50 µM; in [15], 21.4 µM. For the same molecule, the TGI in test [16] is > 50 µM.

With `CCOC(=O)c1sc2c(c1OC(=O)c1cc(OC)c(OC)c(OC)c1)c(=O)n(-c1ccccc1)c(=S)n2-c1ccccc1`, the TGI in test [1], in test [2], in test [17], in [3], in test [4] and in test [18] was > 100 µM throughout. Moreover, the TGI in test [20], in test [5], in [6], in test [19], in test [7] and in test [8] was > 100 µM in each case. The TGI was > 100 µM in [9]; 95.3 µM in test [10]; > 100 µM in [12]; > 100 µM in test [13]; > 100 µM in test [14]; > 100 µM in test [15]. Further, the TGI in test [16] was > 100 µM.

As for `CCOP(=O)(OCC)/C(C#N)=C/c1ccccn1`, the TGI in test [1], in [2], in [17], in test [3], in test [4] and in [18] was > 100 µM each time. Moreover, the TGI in test [20], in test [5], in test [6], in [19], in test [7] and in [8] was > 100 µM in each case. The TGI in test [9], in test [10], in test [12], in test [13], in [14] and in [15] was > 100 µM in each case. The TGI in test [16] was > 100 µM.

For the molecule `CC(C)(C)C(=O)Oc1ccc(/C=C/C(=O)c2ccc(OC(=O)C(C)(C)C)cc2)cc1`, the TGI in test [1] was 96.7 µM; in [2], > 100 µM; in test [17], > 100 µM; in test [3], 20.2 µM; in test [4], > 100 µM; in test [18] it was > 100 µM. Moreover, the TGI in test [20], in [5], in test [6], in [19], in test [7] and in test [8] was > 100 µM each time. The TGI in test [9] is > 100 µM; in test [10] it was > 100 µM; in [12], 86.7 µM; in test [13], > 100 µM; in test [14], > 100 µM; in test [15], > 100 µM. Besides, the TGI in [16] is > 100 µM.

Take `O=C(N=Nc1ccc(Cl)cc1Cl)NNc1ccc(Cl)cc1Cl`: the TGI in test [1] stood at 52.9 µM; in test [17], 43.1 µM; in [3], 59.6 µM; in test [4], 38 µM; in test [18], 53.9 µM; in test [20] it was 57.8 µM. In addition, the TGI in test [5] was 75.3 µM; in test [19] it was 61.4 µM; in test [9] it was 37.6 µM; in test [11], 39.7 µM; in test [12], 72.6 µM; in test [13] it was 35.1 µM. Moreover, the figures for the TGI in test [14] and in test [15] were 33.3 µM and 30.4 µM, respectively.

With `COC(=O)C1Cc2c(OC)ccc(OC)c2C(O)C1C(=O)OC` (centres undefined), the TGI in [1], in [2], in test [17], in test [3], in test [4] and in test [18] was > 100 µM throughout. Also, the TGI in [20], in test [5], in test [6], in test [19], in test [7] and in test [8] was > 100 µM each time. For the same molecule, the TGI in [9], in test [10], in test [12], in test [13], in test [14] and in test [15] was > 100 µM throughout. Besides, the TGI in test [16] was > 100 µM.

With `COc1cc(C(=O)Oc2c(C(C)=O)sc3c2c(=O)n(-c2ccccc2)c(=S)n3-c2ccccc2)cc(OC)c1OC`, the TGI in [1] is 76.5 µM; in test [2], 32.5 µM; in test [17], 68.3 µM; in test [3] it was 45.8 µM; in test [4], 64.2 µM; in test [18], 49.5 µM. The TGI in [20] stood at 88.8 µM; in test [5], 32.8 µM; in test [6] it was 44.8 µM; in [19], 43.5 µM; in test [7], 32.9 µM; in [8], 30.6 µM. The TGI in test [9] is 53.7 µM; in test [10] it was 55.8 µM; in test [12] it was > 100 µM; in test [13], 57 µM; in test [14], 50.6 µM; in [15], 40.1 µM. This molecule also displayed a TGI in test [16] of 40.6 µM.

On to `O=C(O)c1nc2ccc(C(F)(F)F)cc2nc1Nc1ccc(Cl)c(Cl)c1`, for which the TGI in [1] came out at 30.6 µM; in [17], 56.4 µM; in test [4], 76.1 µM; in test [18], 26.6 µM; in test [20], 26.7 µM; in test [5] it was 27.1 µM. Moreover, the TGI came to 66.7 µM in test [6]; 34.7 µM in test [19]; 25.7 µM in [8]; 17.6 µM in test [9]; 14.7 µM in test [11]; 16.3 µM in [12]. Further, the TGI was determined as 25.3 µM in test [13], 21.5 µM in [15] and 17 µM in test [16].

Regarding `Cc1ccc(/C=C2\NC(=S)NC2=O)cc1`, the TGI in [1], in [2], in [3], in [4], in [18] and in test [20] was > 100 µM in each case. Further, the TGI in test [5], in test [6], in test [19], in [7], in [8] and in test [9] was > 100 µM each time. In addition, the TGI in test [11], in test [12], in test [13], in [14], in test [15] and in test [16] was > 100 µM each time.

Take `c1ccc2cc3c(NC4=NCCO4)cccc3cc2c1`: the TGI was > 100 µM in test [1]; > 100 µM in test [2]; > 100 µM in [17]; 81.6 µM in [3]; > 100 µM in test [4]; > 100 µM in test [18]. The TGI was > 100 µM in [20]; 80.4 µM in test [5]; > 100 µM in [6]; > 100 µM in test [19]; > 100 µM in test [7]; > 100 µM in [8]. The TGI in test [9] was > 100 µM; in test [10], 74 µM; in test [12] it was > 100 µM; in test [13], 3.57 µM; in [14], > 100 µM; in test [15], 95 µM. In test [16], the TGI was > 100 µM.

For `CC(=O)C(C)C(=O)N1C(=O)N(C)C2(C)N(C)C(=O)NC12C` (centres undefined), the TGI in [1], in [2], in test [4], in test [18], in test [20] and in test [5] was > 100 µM throughout. Further, the TGI in test [6], in [19], in test [7], in test [8], in [10] and in test [11] was > 100 µM throughout. Further, the TGI in test [13], in test [14] and in test [16] was > 100 µM each time.

As for `COC1(C2c3ccccc3CCN2C(=O)OC(C)(C)C)C(=O)C(c2ccccc2)=C1N(C)C` (centres undefined), the TGI in test [1] was > 100 µM; in test [2], 47.6 µM; in test [17], > 100 µM; in [3] it was > 100 µM; in test [4], > 100 µM; in test [18], > 100 µM. Moreover, the TGI was 43.9 µM in [5]; > 100 µM in test [6]; > 100 µM in test [7]; 35.4 µM in [8]; > 100 µM in test [9]; 86.2 µM in test [10]. Besides, the TGI in [11] was 75 µM; in test [13], 64 µM; in test [14] it was > 100 µM; in test [16], > 100 µM.
